Where “and” joins values, the source holds several entries; their conditions need not be identical. Identical values can stand only once.
Key:
PD-L1/aAPC CHO-K1 cells = test: Cell Counting Kit-8 (CCK) cell viability assay; format: cell-based; conditions: 24 h
[1] = tested on: PD-1/PD-L1 interaction in co-cultured PD-1 Jurkat T cells and PD-L1/aAPC CHO-K1 cells; test: Cell-based PD-1/PD-L1 blockade bioassay (NFAT-luciferase reporter, co-culture); set-up: species or system human; conditions: co-culture 24 h; for EC50: Homo sapiens
Excerpt: When co-cultured with PD-1 Jurkat T cells and PD-L1/aAPC CHO-K1 cells, TCR activation is restrained by PD-1/PD-L1 ligation and the NFAT-luciferase reporter activity. When PD-1/PD-L1 interaction is disrupted, TCR activation induces luminescence via activation of the NFAT pathway in co-culture systems. Therefore, the effects of KO and its glycosides on PD-1/PD-L1 interaction in the cell model system were examined by measuring NFAT-luciferase reporter activity after co-culture with PD-1/NFAT Reporter-Jurkat cells and PD-L1/aAPC CHO-K1 cells. […] The results described above indicate that KO and its glycosides are involved with the PD-1/PD-L1 blockade, as confirmed by the biochemical assay.
A PD-1/PD-L1 Blockade Bioassay kit was used according to the supplier’s instructions (Promega, Fitchburg, WI, USA) with a slight modification. Briefly, the PD-L1 aAPC/CHO-K1 cells were seeded in 96-well plates at a density of 5 × 10^4/well in the complete culture medium. A few hours later, the medium was removed, and 1 × 10^5 PD-1 Jurkat cells were added to each well with test inhibitors. The cells were cultured for 24 h at 37 °C and then lysed using the Bio-Glo™ Luciferase Assay System (Promega, Madison, WI, USA). After incubation for 15 min, luminescence was quantified using a GloMax® Explorer Multimode Microplate Reader (Promega). Data are presented as fold to untreated control.

PD-1 Jurkat cells = test: Cell Counting Kit-8 (CCK) cell viability assay; format: cell-based, human; conditions: 24 h
[2] = reported; no reference given; cited from earlier work
[3] = biological target: T1, PD-1/PD-L1 protein–protein interaction (Homo sapiens, UniProt Q9NZQ7); test: PD-1/PD-L1 competitive ELISA; format: binding
T1 construct: purchased BPS Bioscience #71104 (hPD-L1); #71109 (biotinylated hPD-1); kit #72005
T1 sequence (Q9NZQ7 19-239 limits assumed): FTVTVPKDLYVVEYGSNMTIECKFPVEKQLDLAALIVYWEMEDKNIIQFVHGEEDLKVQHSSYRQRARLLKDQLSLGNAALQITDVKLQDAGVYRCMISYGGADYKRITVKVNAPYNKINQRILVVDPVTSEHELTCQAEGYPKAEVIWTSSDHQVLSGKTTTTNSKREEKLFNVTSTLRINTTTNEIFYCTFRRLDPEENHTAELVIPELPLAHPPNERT
Experimental: To elucidate the effect of test inhibitors on PD-1/PD-L1 protein–protein interaction, PD-1/PD-L1 Competitive ELISA Screening Kits (BPS Bioscience Inc., San Diego, CA, USA) were used according to the supplier’s instructions [27]. Briefly, recombinant hPD-L1 (BPS Bioscience, #71104) was coated overnight at 1 μg/mL in phosphate-buffered saline (PBS) in 96-well plates (Corning Inc., New York, NY, USA). Plates were washed with PBS containing 0.1% Tween (PBS-T), blocked for 1 h at room temperature with PBS containing 2% (w/v) BSA, and then washed again. Fifty microliters of 0.5 μg/mL biotinylated hPD-1 (BPS Bioscience, #71109) was added to the wells, and the plates were incubated for 2 h at room temperature. After three washes in PBS-T, 50 μL of 0.2 μg/mL HRP-conjugated streptavidin was added to each well, and the plates were incubated for 1h. After incubation, plates were washed three times in 0.1% PBS-T, and relative chemiluminescence was measured on a SpectraMax L Luminometer from Molecular Devices (San Jose, CA, USA).

[4] = tested on: PD-1 level in co-cultured PD-1 Jurkat cells and PD-L1 CHO-K1 cells; test: Western blot of PD-1 expression in co-cultured cells; format: cell-based, human; conditions: 24 h
recombinant PD-1 (hPD-1) = recombinant PD-1 (hPD-1) (Homo sapiens, UniProt Q15116); test: Surface plasmon resonance (Biacore T200); format: binding; conditions: SPR
recombinant PD-1 (hPD-1), sequence (Q15116 25-170 limits assumed): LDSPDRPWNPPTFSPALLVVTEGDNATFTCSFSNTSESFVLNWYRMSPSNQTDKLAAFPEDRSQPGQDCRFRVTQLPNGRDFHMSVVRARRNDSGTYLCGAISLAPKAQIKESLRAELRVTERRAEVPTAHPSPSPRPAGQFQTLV

biotinylated human PD-1 = biological target: T2, biotinylated human PD-1 (Homo sapiens, UniProt Q15116); test: Biolayer interferometry (BLItz) kinetic analysis; format: binding
T2 construct: purchased BioVision
T2 sequence (Q15116 25-288): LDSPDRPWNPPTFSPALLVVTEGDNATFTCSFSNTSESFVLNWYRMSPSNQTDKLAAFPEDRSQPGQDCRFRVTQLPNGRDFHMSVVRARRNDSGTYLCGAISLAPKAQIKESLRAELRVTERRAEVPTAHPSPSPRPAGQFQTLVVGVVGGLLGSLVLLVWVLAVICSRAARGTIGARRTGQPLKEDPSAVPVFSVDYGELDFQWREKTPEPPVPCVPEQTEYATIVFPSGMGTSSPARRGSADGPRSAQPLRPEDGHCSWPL
Experimental: (§1) To measure the binding affinities and kinetic constants of test inhibitors, BLI analysis was conducted according to a previous report, with slight modifications. Briefly, BLI on a BLItz system is a label-free analytic technology for biomolecular interactions by measuring interference patterns of light reflected from two surfaces. After pre-equilibration of the SA BLI sensor (Pall FortéBio Corp., Menlo Park, CA, USA) in PBS buffer for 10 min, biotinylated human PD-1 (BioVision, Milpitas, CA, USA) and PD-L1 (Sino biological, Beijing, China) were fully loaded onto the sensors by immersion in 4 μL of PD-1 and PD-L1 solution and then dissolved in PBS buffer to 50 μg/mL. Test inhibitors for the kinetic analysis were prepared by 100-fold dilution of stock solution and dissolved in 100% DMSO (0, 0.25, 0.5, and 0.75 mM) in PBS buffer. Binding kinetics were measured as follows: step 1, initial baseline in PBS buffer containing 1% DMSO for 15 s; step 2, association in 4 μL of test inhibitors solution for 20 s; and step 3, dissociation in PBS buffer containing 1% DMSO for 20 s. The kinetic constants were calculated using the BLItz Pro software by fitting the association and dissociation data to a 1:1 model. The equilibrium dissociation constant, KD, was calculated as the dissociation constant (kd)/association constant (ka).

biotinylated human PD-L1 = biological target: T3, biotinylated human PD-L1 (Homo sapiens, UniProt Q9NZQ7); test: Biolayer interferometry (BLItz) kinetic analysis; format: binding
T3 construct: purchased Sino Biological
T3 sequence (Q9NZQ7 19-290): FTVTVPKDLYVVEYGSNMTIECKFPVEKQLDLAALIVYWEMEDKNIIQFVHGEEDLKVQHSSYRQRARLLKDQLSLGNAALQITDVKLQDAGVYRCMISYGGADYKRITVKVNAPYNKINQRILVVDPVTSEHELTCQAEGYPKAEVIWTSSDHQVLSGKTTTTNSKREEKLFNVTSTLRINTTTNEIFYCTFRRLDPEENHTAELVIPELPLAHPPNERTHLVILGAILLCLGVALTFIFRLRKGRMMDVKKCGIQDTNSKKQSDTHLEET
Experimental: as §1

hPD-L1 = tested on: hPD-L1; set-up: method as in PMID 31455818, PMID 31374878; conditions: biochemical results; cited from earlier work

SMILES | Cytotoxic concentration (not cytotoxic up to) (PD-L1/aAPC CHO-K1 cells) [µM] | Effect on PD-1/PD-L1 interaction in cell model ([1]; indicated concentration) | Cytotoxic concentration (not cytotoxic up to) (PD-1 Jurkat cells) [µM] | Solubility in water [2] | EC50 [1] [µM] | IC50 ([3]; PD-L1-coated plate, biotinylated PD-1, read-out: IC50, PD-1/PD-L1 blocking effect) [µM] | Effect on PD-1 level [4] | Kd (recombinant PD-1 (hPD-1); Biacore T200, recombinant PD-1) [µM] | Rmax (recombinant PD-1 (hPD-1); Biacore software) | Inhibitory effect on PD-1/PD-L1 binding [3] | kd (biotinylated human PD-1; PD-1) [s⁻¹] | kon (biotinylated human PD-1; PD-1, read-out: ka) [M⁻¹ s⁻¹] | Kd (biotinylated human PD-1; PD-1 immobilized on SA sensor, PBS pH 7.3 with 1% DMSO, 1:1 model) [µM] | kd (biotinylated human PD-L1; PD-L1) [s⁻¹] | kon (biotinylated human PD-L1; PD-L1, read-out: ka) [M⁻¹ s⁻¹] | Kd (biotinylated human PD-L1; PD-L1 immobilized on SA sensor, PBS pH 7.3 with 1% DMSO, 1:1 model) [µM] | Direct targeting of hPD-L1 (hPD-L1)
C[C@@H]1O[C@@H](Oc2cc(O)c3c(=O)c(O[C@@H]4O[C@@H](C)[C@H](O)[C@@H](O)[C@H]4O)c(-c4ccc(O)cc4)oc3c2)[C@H](O)[C@H](O)[C@H]1O [KI, kaempferol-3,7-dirhamnoside] | > 100 | no effect at the indicated concentration | > 100 |  |  |  |  |  |  |  |  |  |  |  |  |  | 
O=c1c(O)c(-c2ccc(O)cc2)oc2cc(O)cc(O)c12 [KO, kaempferol] | > 100 |  | > 100 | 440 mg/L and 1.537 mM | 16.5 | 7.8 | not upregulation of PD-1 level |  |  |  |  |  |  |  |  |  | 
C[C@@H]1O[C@@H](Oc2cc(O)c3c(=O)c(O)c(-c4ccc(O)cc4)oc3c2)[C@H](O)[C@H](O)[C@H]1O [KR, kaempferol 7-O-rhamnoside] | > 100 |  | > 100 | 1.16 mg/mL and 2.68 mM | 15.4 |  | not upregulation of PD-1 level | 156 | 24.92 | revealed inhibitory effects on PD-1/PD-L1 binding but did not show dose-dependent activities | 0.00979 | 315 | 31.1 | 0.00773 | 392 | 19.7 | 
C[C@@H](O)[C@H](NC(=O)N[C@@H](CC(N)=O)c1nc([C@@H](N)CO)no1)C(=O)O [CA-170] |  |  |  |  |  |  |  |  |  |  |  |  |  |  |  |  | did not target hPD-L1 directly

Source: article PMC7247329, “Kaempferol and Its Glycoside, Kaempferol 7-O-rhamnoside, Inhibit PD-1/PD-L1 Interaction In Vitro” (International Journal of Molecular Sciences, 2020)
